Reference: patent publication US20200331882A1, “COMPOUND FOR SIMULTANEOUSLY INHIBITING LSD1 AND HDAC TARGETS AND APPLICATION THEREOF” (PEKING UNIVERSITY SHENZHEN GRADUATE SCHOOL, priority 2018, published 2020)
pIC50: −log10 of the molar value. Like-named read-outs stand apart in the source and are kept apart here. One block for each molecule: values may come before it.

How the values were obtained:
Assay in all cases: CellTiter-Glo cell proliferation
Type in all cases: cell-based
HT-1376 = conditions: CTG, 72 hours; for % inhibition at top conc.: highest concentration 10/50 μM; for pIC50: read-out: Absolute IC50
Procedure: (§1) The effect of the present invention compound ZZY-003 on the cell proliferation of 50 cell lines was evaluated by CellTiter-Glo (CTG) method, and the 50% inhibitory concentration was calculated by detecting the cell viability after treatment with different drug concentrations. The cells were resuscitated and cultured in their respective culture media. The cells in logarithmic growth phase were harvested and the cells were counted by cell counter. The cell viability was detected by Trypan blue exclusion method to ensure that the cell line viability was more than 96%. The cell concentration was adjusted by diluting with the culture medium, and 90 μL cell suspension was added to the 96-well cell plate (including the cell control T0 on the day of drug treatment) to make the cell density reach the specified concentration. The cells in the 96-well plate were cultured overnight at 37° C., 5% CO2 and 95% humidity. 10 μL culture medium was added to the control cell culture plate. CellTiter-Glo reagent and cell culture plate were placed at room temperature to balance for 30 minutes. The same volume of CellTiter-Glo reagent was added to each well. Vibrate on the orbital shaker for 2 min to make the cells fully lytic. The cell culture plate was placed at room temperature to balance for 10 minutes. Chemiluminescence values were read with EnVision. The storage solution was formed by dissolving the tested compound with the corresponding solvent and diluted in gradient to obtain 10 times working concentration solution, and 10 times solution of positive drug was also prepared. 10 μL drug solution was added to each well in the 96-well plate in which the cells were inoculated, and each cell concentration was provided with three duplicate wells. The highest concentration of the tested compound was 10/50 μM, 9 concentrations and 3.16 times dilution. The cells in the 96-well plate added with drug were cultured at 37° C., 5% CO2 and 95% humidity for 72 hours. CellTiter-Glo reagent and drug-treated cell culture plate were placed at room temperature to balance for 30 minutes. The same volume of CellTiter-Glo reagent was added to each well. Vibrate on the orbital shaker for 2 minutes to make the cells fully lytic. The cell culture plate was placed at room temperature to balance for 10 minutes. Chemiluminescence values were read with EnVision. Data processing: […] Cell survival rate (%)=(Lum drug to be detected−Lum culture medium control)/(Lum cell control−Lum culture medium control)×100%; Lum cell control−Lum culture medium control was set to 100%, LumMedium control value was set to 0%;

Jurkat clone E6-1 = conditions: CTG, 72 hours; for % inhibition at top conc.: highest concentration 10/50 μM; for pIC50: read-out: Absolute IC50
Procedure: as §1

MOLM-13 = conditions: CTG, 72 hours; for % inhibition at top conc.: highest concentration 10/50 μM; for pIC50: read-out: Absolute IC50
Procedure: as §1

5637 = conditions: CTG, 72 hours; for % inhibition at top conc.: highest concentration 10/50 μM; for pIC50: read-out: Absolute IC50
Procedure: as §1

A549 = conditions: CTG, 72 hours; for % inhibition at top conc.: highest concentration 10/50 μM
Procedure: as §1

JVM-3 = conditions: CTG, 72 hours; for % inhibition at top conc.: highest concentration 10/50 μM; for pIC50: read-out: Absolute IC50
Procedure: as §1

Ramos = conditions: CTG, 72 hours; for % inhibition at top conc.: highest concentration 10/50 μM; for pIC50: read-out: Absolute IC50
Procedure: as §1

MCF7 = conditions: CTG, 72 hours; for % inhibition at top conc.: highest concentration 10/50 μM
Procedure: as §1

PANC-1 = conditions: CTG, 72 hours; for % inhibition at top conc.: highest concentration 10/50 μM; for pIC50: read-out: Absolute IC50
Procedure: as §1

U-937 = conditions: CTG, 72 hours; for % inhibition at top conc.: highest concentration 10/50 μM; for pIC50: read-out: Absolute IC50
Procedure: as §1

MCF 10A = conditions: CTG, 72 hours; for % inhibition at top conc.: highest concentration 10/50 μM; for pIC50: read-out: Absolute IC50
Procedure: as §1

SF268 = conditions: 72 hours; for % inhibition at top conc.: highest concentration 10/50 μM; for pIC50: read-out: Absolute IC50
Procedure: as §1

AMO-1 = conditions: 72 hours; for % inhibition at top conc.: highest concentration 10/50 μM; for pIC50: read-out: Absolute IC50
Procedure: as §1

H69AR = conditions: CTG, 72 hours; for % inhibition at top conc.: highest concentration 10/50 μM; for pIC50: read-out: Absolute IC50
Procedure: as §1

NCI-H1417 = conditions: CTG, 72 hours; for % inhibition at top conc.: highest concentration 10/50 μM; for pIC50: read-out: Absolute IC50
Procedure: as §1

OPM2 = conditions: 72 hours; for % inhibition at top conc.: highest concentration 10/50 μM; for pIC50: read-out: Absolute IC50
Procedure: as §1

K-562 = conditions: 72 hours; for % inhibition at top conc.: highest concentration 10/50 μM; for pIC50: read-out: Absolute IC50
Procedure: as §1

UO.31 = conditions: CTG, 72 hours; for % inhibition at top conc.: highest concentration 10/50 μM; for pIC50: read-out: Absolute IC50
Procedure: as §1

HCT-116 = conditions: CTG, 72 hours; for % inhibition at top conc.: highest concentration 10/50 μM; for pIC50: read-out: Absolute IC50
Procedure: as §1

SW480 = conditions: CTG, 72 hours; for % inhibition at top conc.: highest concentration 10/50 μM; for pIC50: read-out: Absolute IC50
Procedure: as §1

143B = conditions: CTG, 72 hours; for % inhibition at top conc.: highest concentration 10/50 μM; for pIC50: read-out: Absolute IC50
Procedure: as §1

B16-F10 = conditions: CTG, 72 hours; for % inhibition at top conc.: highest concentration 10/50 μM; for pIC50: read-out: Absolute IC50
Procedure: as §1

SU-DHL-6 = conditions: CTG, 72 hours; for % inhibition at top conc.: highest concentration 10/50 μM; for pIC50: read-out: Absolute IC50
Procedure: as §1

AN3 CA = conditions: CTG, 72 hours; for % inhibition at top conc.: highest concentration 10/50 μM; for pIC50: read-out: Absolute IC50
Procedure: as §1

NCI-H1299 = conditions: CTG, 72 hours; for % inhibition at top conc.: highest concentration 10/50 μM; for pIC50: read-out: Absolute IC50
Procedure: as §1

LN-229 = conditions: CTG, 72 hours; for % inhibition at top conc.: highest concentration 10/50 μM; for pIC50: read-out: Absolute IC50
Procedure: as §1

CNE-2Z = conditions: CTG, 72 hours; for % inhibition at top conc.: highest concentration 10/50 μM; for pIC50: read-out: Absolute IC50
Procedure: as §1

SK-OV-3 = conditions: CTG, 72 hours; for % inhibition at top conc.: highest concentration 10/50 μM; for pIC50: read-out: Absolute IC50
Procedure: as §1

BT474 = conditions: 72 hours; for % inhibition at top conc.: highest concentration 10/50 μM; for pIC50: read-out: Absolute IC50
Procedure: as §1

[1] = Homo sapiens, read-out: Absolute IC50

pIC50 (HT-1376; Homo sapiens): 5.64 | pIC50 (Jurkat clone E6-1; Homo sapiens): 6.32 | pIC50 (MOLM-13; Homo sapiens): 6.68 | pIC50 (A549; [1]): 5.66 | pIC50 (Ramos; Homo sapiens): 6.49 | pIC50 (MCF7; [1]): 5.79 | pIC50 (PANC-1; Homo sapiens): 5.23 | pIC50 (U-937; Homo sapiens): 6.34 | pIC50 (NCI-H1417; Homo sapiens): 6.48 | pIC50 (K-562; Homo sapiens, K562, CTG): 6.34 | pIC50 (HCT-116; Homo sapiens): 6.37 | pIC50 (SW480; Homo sapiens): 5.76 | pIC50 (B16-F10; Mus musculus): 5.99 | pIC50 (SU-DHL-6; Homo sapiens): 6.52 | pIC50 (NCI-H1299; Homo sapiens): 5.47 | pIC50 (SK-OV-3; Homo sapiens): 5.80 | pIC50 (BT474; Homo sapiens, BT-474, CTG): 6.29
Structure (SMILES): Cc1ccc(C(=O)Nc2cc(N3CCNCC3)ccc2-c2ccc(/C=C/C(=O)NO)cc2C)cc1.Cl [ZZY-003]
% inhibition at top conc. (HT-1376): 99.41% | % inhibition at top conc. (Jurkat clone E6-1): 99.61% | % inhibition at top conc. (MOLM-13): 99.99% | % inhibition at top conc. 5637: 99.95% | pIC50 5637: 6.09 | % inhibition at top conc. (A549): 95.22% | % inhibition at top conc. (JVM-3): 99.48% | pIC50 (JVM-3; Homo sapiens): 6.46 | % inhibition at top conc. (Ramos): 99.82% | % inhibition at top conc. (MCF7): 96.26% | % inhibition at top conc. (PANC-1): 96.79% | % inhibition at top conc. (U-937): 99.99% | % inhibition at top conc. (MCF 10A): 97.73% | pIC50 (MCF 10A; Homo sapiens): 5.83 | % inhibition at top conc. (SF268; CTG): 99.82% | pIC50 (SF268; Homo sapiens, SF-268, CTG): 5.96 | % inhibition at top conc. (AMO-1; CTG): 99.95% | pIC50 (AMO-1; Homo sapiens, AMO1, CTG): 5.82 | % inhibition at top conc. (H69AR): 96.23% | pIC50 (H69AR; Homo sapiens): 5.36 | % inhibition at top conc. (NCI-H1417): 97.14% | % inhibition at top conc. (OPM2; CTG): 98.99% | pIC50 (OPM2; Homo sapiens, OPM-2, CTG): 6.46 | % inhibition at top conc. (K-562; CTG): 99.85% | % inhibition at top conc. (UO.31): 99.92% | pIC50 (UO.31; Homo sapiens): 5.34 | % inhibition at top conc. (HCT-116): 99.94% | % inhibition at top conc. (SW480): 99.24% | % inhibition at top conc. (143B): 99.97% | pIC50 (143B; Homo sapiens): 5.65 | % inhibition at top conc. (B16-F10): 99.98% | % inhibition at top conc. (SU-DHL-6): 99.91% | % inhibition at top conc. (AN3 CA): 99.92% | pIC50 (AN3 CA; Homo sapiens): 5.90 | % inhibition at top conc. (NCI-H1299): 99.94% | % inhibition at top conc. (LN-229): 99.97% | pIC50 (LN-229; Homo sapiens): 5.80 | % inhibition at top conc. (CNE-2Z): 99.84% | pIC50 (CNE-2Z; Homo sapiens, CNE2Z): 5.82 | % inhibition at top conc. (SK-OV-3): 99.68% | % inhibition at top conc. (BT474; CTG): 99.86%

Structure (SMILES): N.N.[Cl][Pt][Cl] [Cisplatin, reference compound]
% inhibition at top conc. (HT-1376): 88.74% | pIC50 (HT-1376): 5.39 | % inhibition at top conc. (Jurkat clone E6-1): 99.96% | pIC50 (Jurkat clone E6-1): 6.08 | % inhibition at top conc. (MOLM-13): 99.99% | pIC50 (MOLM-13): 6.11 | % inhibition at top conc. 5637: 99.05% | pIC50 5637: 5.59 | % inhibition at top conc. (A549): 96.72% | % inhibition at top conc. (JVM-3): 99.71% | pIC50 (JVM-3): 6.15 | % inhibition at top conc. (Ramos): 99.98% | pIC50 (Ramos): 5.75 | % inhibition at top conc. (MCF7): 90.30% | % inhibition at top conc. (PANC-1): 94.45% | pIC50 (PANC-1): 5.06 | % inhibition at top conc. (U-937): 99.97% | pIC50 (U-937): 5.66 | % inhibition at top conc. (MCF 10A): 99.51% | pIC50 (MCF 10A): 4.88 | % inhibition at top conc. (SF268; CTG): 97.98% | pIC50 (SF268; CTG): 5.54 | % inhibition at top conc. (AMO-1; CTG): 99.99% | pIC50 (AMO-1; CTG): 6.02 | % inhibition at top conc. (H69AR): 94.93% | pIC50 (H69AR): 5.25 | % inhibition at top conc. (NCI-H1417): 81.11% | pIC50 (NCI-H1417): 5.36 | % inhibition at top conc. (OPM2; CTG): 99.97% | pIC50 (OPM2; CTG): 5.44 | % inhibition at top conc. (K-562; CTG): 97.45% | pIC50 (K-562; CTG): 5.22 | % inhibition at top conc. (UO.31): 97.89% | pIC50 (UO.31): 5.37 | % inhibition at top conc. (HCT-116): 95.72% | pIC50 (HCT-116): 5.50 | % inhibition at top conc. (SW480): 94.12% | pIC50 (SW480): 5.57 | % inhibition at top conc. (143B): 99.94% | pIC50 (143B): 5.94 | % inhibition at top conc. (B16-F10): 99.97% | pIC50 (B16-F10): 5.34 | % inhibition at top conc. (SU-DHL-6): 99.95% | pIC50 (SU-DHL-6): 5.25 | % inhibition at top conc. (AN3 CA): 99.96% | pIC50 (AN3 CA): 5.35 | % inhibition at top conc. (NCI-H1299): 98.91% | pIC50 (NCI-H1299): 5.43 | % inhibition at top conc. (LN-229): 97.32% | pIC50 (LN-229): 4.93 | % inhibition at top conc. (CNE-2Z): 96.44% | pIC50 (CNE-2Z): 5.93 | % inhibition at top conc. (SK-OV-3): 89.16% | pIC50 (SK-OV-3): 5.29 | % inhibition at top conc. (BT474; CTG): 67.02% | pIC50 (BT474; CTG): 4.18
